Measurements from US20250332112A1, “IONIZABLE CATIONIC LIPIDS FOR LIPID NANOPARTICLES” (GENEVANT SCIENCES GMBH, priority 2022, published 2025).

Assays:
[1] = Particle characteristics of LNPs containing EGFP mRNA and novel ionizable lipids; type: physicochemical; details: EGFP mRNA LNP 1.6:54.6:32.8:10.9
Procedure: The lipid solution contains 4 components: a PEG-conjugated lipid, an ionizable lipid, cholesterol, and a phospholipid (e.g., DSPC). Lipid stocks were prepared using the lipid identities and molar ratios as described, to achieve a total concentration of ˜7 mg/mL in 100% ethanol. […] Equal volumes of the lipid and nucleic acid solutions were blended at a flow rate of 400 mL/min through a T-connector, and diluted with ˜4 volumes of PBS, pH 7.4. Formulations were placed in Slide-A-Lyzer dialysis units (MWCO 10,000) and dialyzed overnight against 10 mM Tris, 500 mM NaCl, pH 8 buffer. Following dialysis, the formulations were concentrated to ˜0.6 mg/mL using VivaSpin concentrator units (MWCO 100,000) and dialyzed overnight against 5 mM Tris, 10% sucrose, pH 8 buffer. Formulations were filtered through a 0.2 μm syringe filter (PES membrane). Nucleic acid concentration was determined by the RiboGreen assay. Particle size and polydispersity were determined using a Malvern Nano Series Zetasizer.
LNP formulations containing novel ionizable lipids all produced stable particles with high encapsulation efficiency (Tables 20-23).

[2] = Parent ionizable lipid remaining in liver at 24 h after EGFP mRNA LNP (LC-MS); type: in vivo; details: 24 h after IV 0.5 mg/kg EGFP mRNA LNP, female BALB/c mice (n = 4)
Procedure: Liver tissues were treated with PBS and homogenized with a FastPrep machine, 3 cycles of 5 m/s×15 s. Homogenates from the PBS-treated control animals was pooled and used for standard curve preparation. Samples were extracted into a deep well plate with 250 μL of an internal suitability standard. Plates were centrifuged for 15 min at 4° C. and 2000 rpm. Analysis was performed using an Agilent 6520 QTOF coupled to an Agilent 1290 UHPLC, using reverse-phase LC separation. Quantitation of the ionizable lipid was by MS/MS against a calibration curve spiked into appropriately matched blank matrix. Calibration used a similar class of synthetic lipid as internal standard.
At 24 h post-dose, some treatment groups reported lower levels of novel ionizable lipid in mouse liver compared to the benchmark (Tables 28-31).

[3] = tested on: EGFP expression in the liver; test: EGFP expression in liver after intravenous EGFP mRNA LNP (ELISA); details: 0.5 mg/kg IV, 24 h post-IV administration, BALB/c mice (n = 4)

Structure (SMILES) | Final Product % EE ([1]; Table 21) [%] | Final Product PDI ([1]; Table 21) | Final Product Z-avg ([1]; Table 21) [nm] | Parent ionizable lipid remaining in liver, Average ([2]; Table 29) [nmol/g liver] | EGFP ([3]; Table 25) [pg/g liver] | Final Product % EE ([1]; Table 22) [%] | Final Product PDI ([1]; Table 22) | Final Product Z-avg ([1]; Table 22) [nm] | Parent ionizable lipid remaining in liver, Average ([2]; Table 30) [nmol/g liver] | EGFP ([3]; Table 26) [pg/g liver]
CCCCCC/C=C\CCON(C(=O)CCCCN(C)C)C(CCCCCCCCCC)CCCCCCC(=O)OCCC(CCCCCCC)CCCCCCC (stereo not drawn) [Compound 98, 3-Heptyldecyl (Z)-8-(N-(dec-3-en-1-yloxy)-5-(dimethylamino)pentanamido)octadecanoate] | 99 | 0.06 | 84 | 30.21 | 9.76E+05 | – | – | – | – | –
CCCCCCCCCCON(C(=O)CCCCN(C)C)C(CCCCCCCCCC)CCCCCCC(=O)OCCC(CCCCCCC)CCCCCCC (stereo not drawn) [Compound 99, 3-Heptyldecyl 8-(N-(decyloxy)-5-(dimethylamino)pentanamido)octadecanoate] | 97 | 0.04 | 86 | 19.93 | 1.05E+06 | – | – | – | – | –
CCCCCC/C=C\CCON(C(=O)CCCN(C)C)C(CCCCCCCCCC)CCCCCCC(=O)OCCC(CCCCC)CCCCC (stereo not drawn) [Compound 100, 3-Pentyloctyl (Z)-8-(N-(dec-3-en-1-yloxy)-4-(dimethylamino)butanamido)octadecanoate] | 98 | 0.08 | 72 | 5.03 | 5.98E+05 | – | – | – | – | –
CCCCCCCCCCN(C(=O)CCCN(C)C)C(CCCCCCCCC)CCCCC(F)(F)C(=O)OCC(CCCCCC)CCCCCCCC (stereo not drawn) [Compound 102, 2-Hexyldecyl 7-(N-decyl-4-(dimethylamino)butanamido)-2,2-difluorohexadecanoate] | 98 | 0.09 | 67 | 5.72 | 1.94E+05 | – | – | – | – | –
CCCCCCCCCCN(C(=O)CCCN(C)C)C(CCCCCCCCC)CCCCC(F)(F)C(=O)OCCC(CCCCCC)CCCCCC (stereo not drawn) [Compound 103, 3-Hexylnonyl 7-(N-decyl-4-(dimethylamino)butanamido)-2,2-difluorohexadecanoate] | 98 | 0.09 | 67 | 0.00 | 9.54E+04 | – | – | – | – | –
CCCCCCCCCCN(C(=O)CCCN(C)C)C(CCCCCCCCC)CCCCCCC(F)(F)C(=O)OC(CCCCCCCC)CCCCCCCC (stereo not drawn) [Compound 104, Heptadecan-9-yl 9-(N-decyl-4-(dimethylamino)butanamido)-2,2-difluorooctadecanoate] | – | – | – | – | – | 99 | 0.07 | 74 | 51.14 | 7.36E+06
CCCCCCCCCCC(CCCCCCC(=O)OCCC(CCCCCC)CCCCCC)N(CCCCCCCCCC)C(=O)OCCCN(C)C (stereo not drawn) [Compound 105, 3-hexylnonyl 8-(decyl((3-(dimethylamino)propoxy)carbonyl)-amino) octadecanoate] | – | – | – | – | – | 97 | 0.08 | 82 | 18.96 | 1.86E+07
CCCCCCCCCCON(C(=O)CCCN(C)C)C(CCCCCCCCCC)CCCCCCC(F)(F)C(=O)OC(CCCCCCC)CCCCCCC (stereo not drawn) [Compound 106, Pentadecan-8-yl 9-(N-(decyloxy)-4-(dimethylamino)butanamido)-2,2-difluoro-nonadecanoate] | – | – | – | – | – | 95 | 0.13 | 73 | 56.97 | 2.45E+07
CCCCCCCCCCC(CCCCCCC(=O)OCC(CCCCCC)CCCCCCCC)N(CCCCCCCCCC)C(=O)CCN(C)C (stereo not drawn) [Compound 107, 2-Hexyldecyl 8-(N-decyl-3-(dimethylamino)propanamido)octadecanoate] | – | – | – | – | – | 98 | 0.06 | 76 | 28.74 | 3.66E+07
CCCCCCCCCCN(C(=O)CCCN(C)C)C(CCCCCCCCC)CCCCC(F)(F)C(=O)OC(CCCCC)CCCCC (stereo not drawn) [Compound 108, Undecan-6-yl 7-(N-decyl-4-(dimethylamino)butanamido)-2,2-difluorohexadecanoate] | – | – | – | – | – | 95 | 0.07 | 80 | 3.86 | 5.41E+07
CCCCCCCCCCN(C(=O)CCCN(C)C)C(CCCCCCCCC)CCCCC(F)(F)C(=O)OC(CCCCCCCC)CCCCCCCC (stereo not drawn) [Compound 110, Heptadecan-9-yl 7-(N-decyl-4-(dimethylamino)butanamido)-2,2-difluorohexadecanoate] | – | – | – | – | – | 98 | 0.11 | 67 | 33.07 | 4.01E+07
CCCCCCCCCCN(C(=O)CCCN(C)C)C(CCCCCCCCC)CCCCCCC(F)C(=O)OC(CCCCC)CCCCC (stereo not drawn) [Compound 112, Undecan-6-yl 9-(N-decyl-4-(dimethylamino)butanamido)-2-fluorooctadecanoate] | – | – | – | – | – | 95 | 0.08 | 82 | 1.73 | 4.78E+07
CCCCCCCCCCN(C(=O)CCCN(C)C)C(CCCCCCCCC)CCCCCCC(F)C(=O)OC(CCCCCC)CCCCCC (stereo not drawn) [Compound 113, Tridecan-7-yl 9-(N-decyl-4-(dimethylamino)butanamido)-2-fluorooctadecanoate] | – | – | – | – | – | 98 | 0.05 | 72 | 4.68 | 3.45E+07
CCCCCCCCCCN(C(=O)CCCN(C)C)C(CCCCCCCCC)CCCCCCC(F)C(=O)OC(CCCCCCC)CCCCCCC (stereo not drawn) [Compound 114, Pentadecan-8-yl 9-(N-decyl-4-(dimethylamino)butanamido)-2-fluorooctadecanoate] | – | – | – | – | – | 98 | 0.08 | 73 | 12.79 | 4.29E+07
CCCCCCCCCCC(CCCCCCC(=O)OC(CCCCCC)CCCCCC)N(CCCCCCC(F)(F)C(=O)OC(CCCCCC)CCCCCC)C(=O)CCCN(C)C (stereo not drawn) [Compound 116, Tridecan-7-yl 8-(N-(7,7-difluoro-8-oxo-8-(tridecan-7-yloxy)octyl)-4-(dimethylamino)-butanamido)octadecanoate] | – | – | – | – | – | 98 | 0.09 | 75 | 60.05 | 2.93E+07
CCCCCCCCCCC(CCCCCCC(=O)OC(CCCCCCC)CCCCCCC)N(CCCCCCC(F)(F)C(=O)OC(CCCCCCC)CCCCCCC)C(=O)CCCN(C)C (stereo not drawn) [Compound 117, Pentadecan-8-yl 8-(N-(7,7-difluoro-8-oxo-8-(pentadecan-8-yloxy)octyl)-4-(dimethylamino)butanamido)octadecanoate] | – | – | – | – | – | 99 | 0.06 | 80 | 49.53 | 3.15E+07
CCCCCCCCCCC(CCCCCCC(=O)OC(CCCCCCCC)CCCCCCCC)N(CCCCCCC(F)(F)C(=O)OC(CCCCCCCC)CCCCCCCC)C(=O)CCCN(C)C (stereo not drawn) [Compound 118, Heptadecan-9-yl 8-(N-(7,7-difluoro-8-(heptadecan-9-yloxy)-8-oxooctyl)-4-(dimethylamino)butanamido)octadecanoate] | – | – | – | – | – | 98 | 0.06 | 83 | 62.81 | 1.86E+07
CCCCCCCCCCC(CCCCCCCC(=O)OCC(CCCCCC)CCCCCCCC)N(CCCCCCCCCC)C(=O)CCN(C)C (stereo not drawn) [Compound 119, 2-Hexyldecyl 9-(N-decyl-3-(dimethylamino)propanamido)nonadecanoate] | – | – | – | – | – | 97 | 0.09 | 73 | 25.25 | 1.60E+07
